US9926340B2, “NAD analogs and methods of using said NAD analogs in determining ribosylation of proteins with PARP mutants” (The Board of Regents of the University of Texas System, priority 2015, dated 2018)

Tested on: HeLa cell nuclear extract proteins
Assay: ADP-ribosylation of HeLa cell nuclear extract proteins by asPARPs 1, 2 or 3
Format: biochemical, human
Conditions: purified recombinant asPARPs 1, 2, or 3; 250 μM analog, 15 min
Description: HeLa cell nuclear extract preparation. HeLa Nuclear Extract was prepared essentially as described in Dignam et al., 1983. 5 L of HeLa S3 cells were grown in Spinner flasks to a density of 0.5×10^6 cells per milliliter and harvested by centrifugation at 4° C. for 10 minutes at 2000 RPM. Cell pellets were washed in 5 pelleted cell volumes of ice cold PBS and centrifuged 10 minutes at 2000 RPM. Cells were resuspended in 5 pelleted cell volumes of Buffer A (10 mM HEPES, pH 7.9, 1.5 mM MgCl2, 10 mM KCl, 0.5 mM DTT, 1 mM PMSF, 4 mM Benzamidine, 1 μM Aprotinin, 100 μM Leupeptin, 1 μM Pepstatin A) and incubated 10 minutes on ice to facilitate cell swelling and centrifuged at 4° C. for 10 minutes at 2000 RPM. Cells were resuspended in 2 pelleted cell volumes of Buffer A and dounced with a light pestle dounce homogenizer (Wheaton) to release nuclei. The nuclei were then pelleted by centrifugation at 4° C. for 10 minutes at 2000 RPM and the supernatant decanted. The nuclei were subsequently centrifuged at 4° C. for 20 minutes at 25,000 RCF to obtain a crude nuclear fraction. […]

SMILES: C#CCCSc1nc2c(N)ncnc2n1[C@@H]1O[C@H](COP(=O)(O)OP(=O)(O)OC[C@H]2O[C@@H]([n+]3cccc(C(N)=O)c3)C(O)C2O)[C@H](O)C1O (stereo partly shown) [8-Bu(3-yne)T-NAD^+]
- labeling of HeLa cell nuclear extract proteins: PARP-specific labeling of extract proteins
